{"source": "patent US20250353841A1", "about": "(BIOGEN MA INC., priority 2022, published 2025)", "data": [{"test_system": "mutant Huntington (HTT) protein", "assay": "HTT Mutant HTRF iPSC assay (mHTT protein lowering)", "assay_type": "cell-based", "conditions": "human iPSC derived from a HTT patient with a poly-Q49 mutation", "units": {"IC50": "nM"}, "values": [{"smiles": "CN1CC2(c3cn4cc(-c5cc(F)c6nn(C)cc6c5)cc(F)c4n3)CC1C2", "note": "[Compound 66, 7-fluoro-5-[8-fluoro-2-(2-methyl-2-azabicyclo[2.1.1]hexan-4-yl)imidazo[1,2-a]pyridin-6-yl]-2-methyl-indazole]", "IC50": "1000 to 9000"}, {"smiles": "Cn1cc2cc(-c3cc(F)c4nc(C56CNC(C5)C6)cn4c3)cc(F)c2n1", "note": "[Compound 67]", "IC50": "1000 to 9000"}, {"smiles": "Cn1cc2cc(-c3cc(F)c4nc(C56CC(N)(CO5)C6)cn4c3)cc(F)c2n1", "note": "[Compound 68]", "IC50": "1000 to 9000"}, {"smiles": "Cc1cn2nc(-c3cc(F)c4nc(C5CCN(C6CCC6)CC5)cn4c3)cc(C)c2n1", "note": "[Compound 69, 6-[2-(1-cyclobutyl-4-piperidyl)-8-fluoro-imidazo[1,2-a]pyridin-6-yl]-2,8-dimethyl-imidazo[1,2-b]pyridazine]", "IC50": "< 100"}, {"smiles": "Cn1cc2cc(-c3cc(F)c4nc(C56CCC(N)(C5)C6)cn4c3)cc(F)c2n1", "note": "[Compound 72, 4-(8-fluoro-6-(7-fluoro-2-methyl-2H-indazol-5-yl)imidazo[1,2-a]pyridin-2-yl)bicyclo[2.1.1]hexan-1-amine]", "IC50": "1000 to 9000"}, {"smiles": "CN1C(=O)COc2cc(-c3cc(F)c4nc(C5CCNCC5)cn4c3)cnc21", "note": "[Compound 73, 7-(8-fluoro-2-(piperidin-4-yl)imidazo[1,2-a]pyridin-6-yl)-4-methyl-2H-pyrido[3,2-b][1,4]oxazin-3(4H)-one]", "IC50": "1000 to 9000"}, {"smiles": "CC(=O)N1CCC(c2cn3cc(-c4cc(C)c5nc(C)cn5n4)cc(F)c3n2)CC1", "note": "[Compound 74, 1-[4-[6-(2,8-dimethylimidazo[1,2-b]pyridazin-6-yl)-8-fluoro-imidazo[1,2-a]pyridin-2-yl]-1-piperidyl]ethanone]", "IC50": "100 to 1000"}, {"smiles": "Cn1cc2cc(-c3cc(F)c4nc(C56CCNC(C5)C6)cn4c3)cc(F)c2n1", "note": "[Compound 75]", "IC50": "1000 to 9000"}, {"smiles": "CN1CCC2(c3cn4cc(-c5cc(F)c6nn(C)cc6c5)cc(F)c4n3)CC1C2", "note": "[Compound 76, 5-(8-fluoro-6-(7-fluoro-2-methyl-2H-indazol-5-yl)imidazo[1,2-a]pyridin-2-yl)-2-methyl-2-azabicyclo[3.1.1]heptane]", "IC50": "1000 to 9000"}, {"smiles": "CNC12CCC(c3cn4cc(-c5cc(F)c6nn(C)cc6c5)cc(F)c4n3)(C1)C2", "note": "[Compound 77, 4-(8-fluoro-6-(7-fluoro-2-methyl-2H-indazol-5-yl)imidazo[1,2-a]pyridin-2-yl)-N-methylbicyclo[2.1.1] hexan-1-amine]", "IC50": "1000 to 9000"}, {"smiles": "Cc1cn2nc(-c3cc(F)c4nc(C5CC6(CCNCC6)C5)cn4c3)cc(C)c2n1", "note": "[Compound 78, 6-(8-fluoro-2-(7-azaspiro[3.5]nonan-2-yl)imidazo[1,2-a]pyridin-6-yl)-2,8-dimethylimidazo[1,2-b]pyridazine]", "IC50": "< 100"}, {"smiles": "CNC12COC(c3cn4cc(-c5cc(F)c6nn(C)cc6c5)cc(F)c4n3)(C1)C2", "note": "[Compound 79, 1-[8-fluoro-6-(7-fluoro-2-methyl-indazol-5-yl)imidazo[1,2-a]pyridin-2-yl]-N-methyl-2-oxabicyclo[2.1.1]hexan-4-amine]", "IC50": "100 to 1000"}, {"smiles": "Cc1cn2nc(-c3cc(F)c4nc(C56CC(C5)N(C)C6)cn4c3)cc(C)c2n1", "note": "[Compound 80]", "IC50": "100 to 1000"}, {"smiles": "Cc1nc2c(F)cc(-c3cc(F)c4nc(C5CCNCC5)cn4c3)cc2o1", "note": "[Compound 82, 4-fluoro-6-(8-fluoro-2-(piperidin-4-yl)imidazo[1,2-a]pyridin-6-yl)-2-methylbenzo[d]oxazole]", "IC50": "< 100"}, {"smiles": "COc1cc(-c2cc(F)c3nc(C4CCNCC4)cn3c2)cc2cn(C)nc12", "note": "[Compound 83, 5-(8-fluoro-2-(piperidin-4-yl)imidazo[1,2-a]pyridin-6-yl)-7-methoxy-2-methyl-2H-indazole]", "IC50": "100 to 1000"}, {"smiles": "Cn1cc2cc(-c3cc(F)c4nc(C5CCNCC5)cn4c3)cc(C(F)F)c2n1", "note": "[Compound 84, 7-(difluoromethyl)-5-(8-fluoro-2-(piperidin-4-yl)imidazo[1,2-a]pyridin-6-yl)-2-methyl-2H-indazole]", "IC50": "< 100"}, {"smiles": "Cn1cc2cc(-c3cc(F)c4nc(C5CCNCC5)cn4c3)cc(C#N)c2n1", "note": "[Compound 85, 5-(8-fluoro-2-(piperidin-4-yl)imidazo[1,2-a]pyridin-6-yl)-2-methyl-2H-indazole-7-carbonitrile]", "IC50": "100 to 1000"}, {"smiles": "Cn1cc2c(F)cc(-c3cc(F)c4nc(C5CCNCC5)cn4c3)cc2n1", "note": "[Compound 86, 4-fluoro-6-(8-fluoro-2-(piperidin-4-yl)imidazo[1,2-a]pyridin-6-yl)-2-methyl-2H-indazole]", "IC50": "1000 to 9000"}, {"smiles": "Cn1nc2cc(-c3cc(F)c4nc(C5CCNCC5)cn4c3)cc(F)c2n1", "note": "[Compound 87, 4-fluoro-6-(8-fluoro-2-(piperidin-4-yl)imidazo[1,2-a]pyridin-6-yl)-2-methyl-2H-benzo[d][1,2,3]triazole]", "IC50": "100 to 1000"}, {"smiles": "Cc1nc2c(F)cc(-c3cc(F)c4nc(C5CCNCC5)cn4c3)cn2n1", "note": "[Compound 88, 8-fluoro-6-(8-fluoro-2-(piperidin-4-yl)imidazo[1,2-a]pyridin-6-yl)-2-methyl-[1,2,4]triazolo[1,5-a]pyridine]", "IC50": "100 to 1000"}, {"smiles": "COc1cc(-c2cc(F)c3nc(C4CCNCC4)cn3c2)cn2cc(C)nc12", "note": "[Compound 89, 8-fluoro-8′-methoxy-2′-methyl-2-(piperidin-4-yl)-6,6′-biimidazo[1,2-a]pyridine]", "IC50": "100 to 1000"}, {"smiles": "Cc1nc2c(F)cc(-c3cc(F)c4nc(C5CCNCC5)cn4c3)cc2s1", "note": "[Compound 90, 4-fluoro-6-(8-fluoro-2-(piperidin-4-yl)imidazo[1,2-a]pyridin-6-yl)-2-methylbenzo[d]thiazole]", "IC50": "1000 to 9000"}, {"smiles": "Cc1cn2nc(-c3cc(F)c4nc(C56CC(N)(C5)C6)cn4c3)cc(C)c2n1", "note": "[Compound 91]", "IC50": "< 100"}, {"smiles": "Cc1cc(-c2cc(F)c3nc(C4CCNCC4)cn3c2)nc2cn(C)nc12", "note": "[Compound 92, 5-(8-fluoro-2-(piperidin-4-yl)imidazo[1,2-a]pyridin-6-yl)-2,7-dimethyl-2H-pyrazolo[4,3-b]pyridine]", "IC50": "< 100"}, {"smiles": "Cn1cc2cc(-c3cc(F)c4nc(C5CCNCC5)cn4c3)cc(F)c2n1", "note": "[Compound 93, 7-fluoro-5-(8-fluoro-2-(piperidin-4-yl)imidazo[1,2-a]pyridin-6-yl)-2-methyl-2H-indazole]", "IC50": "100 to 1000"}, {"smiles": "Cc1cc(-c2cc(F)c3nc(C4CCNCC4)cn3c2)cc2cn(C)nc12", "note": "[Compound 94, 5-(8-fluoro-2-(piperidin-4-yl)imidazo[1,2-a]pyridin-6-yl)-2,7-dimethyl-2H-indazole]", "IC50": "100 to 1000"}, {"smiles": "Cc1cn2cc(-c3cc(F)c4nc(C5CCNCC5)cn4c3)cc(C)c2n1", "note": "[Compound 95, 8-fluoro-2′,8′-dimethyl-2-(piperidin-4-yl)-6,6′-biimidazo[1,2-a]pyridine]", "IC50": "100 to 1000"}, {"smiles": "Cc1cn2cc(-c3cc(F)c4nc(C5CCNCC5)cn4c3)ccc2n1", "note": "[Compound 96, 8-fluoro-2′-methyl-2-(piperidin-4-yl)-6,6′-biimidazo[1,2-a]pyridine]", "IC50": "1000 to 9000"}, {"smiles": "Cc1cn2cc(-c3cc(F)c4nc(C5CCNCC5)cn4c3)cc(F)c2n1", "note": "[Compound 97, 8,8′-difluoro-2-methyl-2′-(piperidin-4-yl)-6,6′-biimidazo[1,2-a]pyridine]", "IC50": "100 to 1000"}, {"smiles": "Fc1cc(-c2ccc3sncc3c2)cn2cc(C3CCNCC3)nc12", "note": "[Compound 98, 5-(8-fluoro-2-(piperidin-4-yl)imidazo[1,2-a]pyridin-6-yl)benzo[d]isothiazole]", "IC50": "1000 to 9000"}, {"smiles": "Cc1cn2nc(-c3cc(F)c4nc(C5CCN(C6COC6)CC5)cn4c3)cc(C)c2n1", "note": "[Compound 99, 6-(8-fluoro-2-(1-(oxetan-3-yl)piperidin-4-yl)imidazo[1,2-a]pyridin-6-yl)-2,8-dimethylimidazo[1,2-b]pyridazine]", "IC50": "< 100"}, {"smiles": "CNC12CC(c3cn4cc(-c5cc(C)c6nc(C)cn6n5)cc(F)c4n3)(C1)C2", "note": "[Compound 100, 3-(6-(2,8-dimethylimidazo[1,2-b]pyridazin-6-yl)-8-fluoroimidazo[1,2-a]pyridin-2-yl)-N-methylbicyclo[1.1.1] pentan-1-amine]", "IC50": "< 100"}, {"smiles": "Cc1cn2nc(-c3cc(F)c4nc(C5CCNCC5)cn4c3)c(C)cc2n1", "note": "[Compound 101, 6-(8-fluoro-2-(piperidin-4-yl)imidazo[1,2-a]pyridin-6-yl)-2,7-dimethylimidazo[1,2-b]pyridazine]", "IC50": "1000 to 9000"}, {"smiles": "Cc1cc(-c2cc(F)c3nc(C4CCNCC4)cn3c2)nn2ccnc12", "note": "[Compound 102, 6-(8-fluoro-2-(piperidin-4-yl)imidazo[1,2-a]pyridin-6-yl)-8-methylimidazo[1,2-b]pyridazine]", "IC50": "100 to 1000"}, {"smiles": "CCc1cc(-c2cc(F)c3nc(C4CCNCC4)cn3c2)cn2cc(C)nc12", "note": "[Compound 103, 8-ethyl-8′-fluoro-2-methyl-2′-(piperidin-4-yl)-6,6′-biimidazo[1,2-a]pyridine]", "IC50": "100 to 1000"}, {"smiles": "Cn1ncc2cc(-c3cc(F)c4nc(C5CCNCC5)cn4c3)cc(F)c21", "note": "[Compound 104, 7-fluoro-5-(8-fluoro-2-(piperidin-4-yl)imidazo[1,2-a]pyridin-6-yl)-1-methyl-1H-indazole]", "IC50": "1000 to 9000"}, {"smiles": "Cc1cc(-c2cc(F)c3nc(C4CCNCC4)cn3c2)nn2cnnc12", "note": "[Compound 105, 6-(8-fluoro-2-(piperidin-4-yl)imidazo[1,2-a]pyridin-6-yl)-8-methyl-[1,2,4]triazolo[4,3-b]pyridazine]", "IC50": "1000 to 9000"}, {"smiles": "Cc1cn2nc(-c3cc(F)c4nc(C5CCN(C6CC6)CC5)cn4c3)ccc2n1", "note": "[Compound 106, 6-(2-(1-cyclopropylpiperidin-4-yl)-8-fluoroimidazo[1,2-a]pyridin-6-yl)-2-methylimidazo[1,2-b]pyridazine]", "IC50": "< 100"}, {"smiles": "Cc1cn2nc(-c3cc(F)c4nc(C5CC6(CNC6)C5)cn4c3)cc(C)c2n1", "note": "[Compound 107]", "IC50": "100 to 1000"}, {"smiles": "Cc1cn2nc(-c3cc(F)c4nc(C56CCC(N)(CC5)CC6)cn4c3)cc(C)c2n1", "note": "[Compound 108, 4-(6-(2,8-dimethylimidazo[1,2-b]pyridazin-6-yl)-8-fluoroimidazo[1,2-a]pyridin-2-yl)bicyclo[2.2.2]octan-1-amine]", "IC50": "< 100"}, {"smiles": "Cc1cn2nc(-c3cc(F)c4nc(C56CC(N(C)C)(C5)C6)cn4c3)cc(C)c2n1", "note": "[Compound 109, 3-(6-(2,8-dimethylimidazo[1,2-b]pyridazin-6-yl)-8-fluoroimidazo[1,2-a]pyridin-2-yl)-N,N-dimethylbicyclo[1.1.1] pentan-1-amine]", "IC50": "< 100"}]}]}
